This is an account of results in patent US7344884B2, “Peptides promoting cell adherence, growth and secretion” (Becton, Dickinson and Company, priority 2001, dated 2008).

Marks after values point to notes of the source that are not given here.

The assay concerns MC3T3 cells. As to the kind of experiment: Oxygen biosensor assay of adherence and growth of MC3T3 cells on peptide-coated wells. Conditions: for Abs at 590 nm (relative oxygen consumption), MDL-400 Library / relative oxygen consumption (Absorbance at 590 nm) / Abs at 590 nm (relative oxygen consumption), Controls: 86 hour time point; for Abs at 590 nm (relative oxygen consumption), MDL-400 Library: single peptide, 50 µl of 1 mM stock dried in well, value normalized to the well's initial reading; for impact on MC3T3 growth (result in words): peptide or control adsorbed to surface, compared with uncoated surface or controls; for Abs at 590 nm (relative oxygen consumption), Controls: 25 µl stock of ECM or known peptide control dried in well, same plate. It is filed as cell-based, murine. The procedure:
To identify peptides in a particular library which positively affected cell growth in cell culture, the library was screened in a growth assay. The selected cells were anchorage-dependent MC3T3 cells, which were grown on tissue culture surfaces which had been pre-coated with peptides of the present invention. The screening medium used to evaluate peptides in the library was a low serum medium allowing evaluation of peptide effects with low interference from undefined materials present in the medium. In the present work, growth of MC3T3 cells was assessed in the presence and absence of the peptides in the library which were present in the form of a dried film on a tissue culture substrate. Growth was evaluated in a basal medium rich in amino acids and containing the necessary vitamins, metals and simple carbon source. After an appropriate incubation time, growth of each peptide-supplemented culture is compared to growth of the unsupplemented culture. The extent of growth was evaluated using a Becton Dickinson oxygen sensor to detect oxygen consumption by the cells. The cell number in each well containing a particular peptide was then assessed indirectly with a flurometer which measured fluorescence generated from a fluoroescent dye using band-pass filters of 465 nm for excitation and 590 nm for emission.
Briefly, the oxygen biosensor is based upon the fluoroscence of ruthenium dye which is quenched in the presence of oxygen. The dye is immobilized within an inert but highly permeable silicone matrix located at the bottom of microtiter wells. […] (Wodnicka, M., Guarino, R. D., Hemperly, J. J. Temmins, M. R., Stitt, D. and Pitner, J. B. (2000) J. of Biomolecular Screening 5:141-152)
MC3T3-E1 is a clonal line of murine calvaria-derived osteoblast (establishement of a clonal osteogenic Cell Line from Newborn Mouse Calvaria in Jpn J. Oral Biol 23, 899 (1981)).
MC3T3 cells were maintained in αMEM (GIBCO Catalog No: 12561) supplemented with 2% fetal calf serum (FCS, inactivated) and 100 units or μg/ml of penicillin/streptomycin for one month prior to use. Cells were routinely seeded at a density of approximately 1×10^4 cells per 20 ml culture media which was placed in a 250 ml canted neck polystyrene tissue culture treated flask (Becton Dickinson). Cells were cultured until approximately 2×10^6 cells were obtainable from each flask, which were resuspended in 5 ml of αMEM with 2% FCS for a final cell concentration of about 5×10^4 cells per 150 μl for peptide screening.
For determining the biological effects of library peptides and appropriate controls on MC3T3 cells, cells (5×10^4/150 μl) were grown in an 96 well oxygen sensor plate treated as described below:
Peptides for screening were obtained from either a MDL-400 library or an MDL-100 library. Fifty microliters of peptides at a 1 mM stock concentration in phosphate buffered saline were placed in wells of a 96 well oxygen sensor plate and dried in a reverse flow air hood overnight […].
Vitrogen-collagen-I was obtained from Cohesion (Palo Alto, Calif., Catalog No. FXP-019) and fibronectin was obtained from Sigma (Catalog No. F-0895). All other extracellular matrix (ECM) compounds were obtained from Becton Dickinson Labware, (Bedford, Mass.). Polylysine was obtained from Becton Dickinson Labware and RGDSP-rhodamine was from AnaSpec Inc. (San Jose, Calif.). Extracellular matrix components (ECM) or known peptides were used at the following stock concentrations:
Twenty-five microliters of stock concentrations of controls and 25 μl of phosphate buffered saline were placed in wells of a 96 well oxygen sensor plate and dried overnight as described above.
Cells grown on 96 well oxygen sensor plates treated as described above were monitored for growth using a Becton Dickinson oxygen biosensor. Growth was monitored at the following time points: 1 hours, 24 hours, 32 hours, 48 hours and 86 hours. Media was changed every three days. […]

For “FIFAK (Synthetic peptide selected for biological activity) [SEQ ID NO:3]”, the “Abs at 590 nm (relative oxygen consumption), MDL-400 Library” value is 2.08* and the “impact on MC3T3 growth (result in words)” value was “significant difference in growth”. In the case of Laminin [reference compound], the “relative oxygen consumption (Absorbance at 590 nm)” value worked out at 2.65 and the “Abs at 590 nm (relative oxygen consumption), Controls” value was 2.65. As to RGDSP-rhodamine [reference compound], the “Abs at 590 nm (relative oxygen consumption), Controls” value was determined as 1.25. “Collagen-IV: extracellular matrix (ECM) control from Becton Dickinson Labware [reference compound]”: the “relative oxygen consumption (Absorbance at 590 nm)” value was found to be 3.14 and the “Abs at 590 nm (relative oxygen consumption), Controls” value was 3.14. Take Fibronectin [reference compound]: the “Abs at 590 nm (relative oxygen consumption), Controls” value is 2.12. Regarding “FAKFI (Synthetic peptide selected for biological activity) [SEQ ID NO:11]”, the “Abs at 590 nm (relative oxygen consumption), MDL-400 Library” value is recorded as 2.06* and the “impact on MC3T3 growth (result in words)” value is listed as “significant difference in growth”. Take “Collagen-V: extracellular matrix (ECM) control from Becton Dickinson Labware [reference compound]”: the “Abs at 590 nm (relative oxygen consumption), Controls” value is reported as 1.76.

Regarding “FIKFG (Synthetic peptide selected for biological activity) [SEQ ID NO:2]”, the “Abs at 590 nm (relative oxygen consumption), MDL-400 Library” value is 2.38* and the “impact on MC3T3 growth (result in words)” value was “significant difference in growth”. The “impact on MC3T3 growth (result in words)” value (listed as FIKFG) was “positive”. As to “AKIFF (Synthetic peptide selected for biological activity) [SEQ ID NO:8]”, the “Abs at 590 nm (relative oxygen consumption), MDL-400 Library” value was 2.08* and the “impact on MC3T3 growth (result in words)” value is recorded as “significant difference in growth”. For Polylysine [reference compound], the “Abs at 590 nm (relative oxygen consumption), Controls” value came to 1.08.

With “VFPFK (Synthetic peptide selected for biological activity) [SEQ ID NO:7]”, the “Abs at 590 nm (relative oxygen consumption), MDL-400 Library” value is 2.06* and the “impact on MC3T3 growth (result in words)” value is listed as “significant difference in growth”.

For “AFKIF (Synthetic peptide selected for biological activity) [SEQ ID NO:9]”, the “relative oxygen consumption (Absorbance at 590 nm)” value came out at 2.78; the “Abs at 590 nm (relative oxygen consumption), MDL-400 Library” value is on record as 2.78*; the “impact on MC3T3 growth (result in words)” value is recorded as “significant difference in growth”. Turning to “AFFKI (Synthetic peptide selected for biological activity) [SEQ ID NO:6]”, the “Abs at 590 nm (relative oxygen consumption), MDL-400 Library” value is given as 2.01* and the “impact on MC3T3 growth (result in words)” value is “significant difference in growth”. On the same counts, the results for “KFAFI (Synthetic peptide selected for biological activity) [SEQ ID NO:10]” are 2.11* and “significant difference in growth”. The corresponding values for “QVVAK (Synthetic peptide selected for biological activity) [SEQ ID NO:4]” are 2.11* and “significant difference in growth”. In the case of “IFFKG (Synthetic peptide selected for biological activity) [SEQ ID NO:1]”, the “relative oxygen consumption (Absorbance at 590 nm)” value turned out to be 2.53; the “Abs at 590 nm (relative oxygen consumption), MDL-400 Library” value is recorded as 2.53*; the “impact on MC3T3 growth (result in words)” value is reported as “significant difference in growth”. Moreover, the “impact on MC3T3 growth (result in words)” value (listed as IFFKG) is “positive”.

B1: Collagen-III: extracellular matrix (ECM) control from Becton Dickinson Labware (protein, UniProt P02461 154-1221, looked up)
Collagen alpha-1(III) chain: QYDSYDVKSGVAVGGLAGYPGPAGPPGPPGPPGTSGHPGSPGSPGYQGPPGEPGQAGPSGPPGPPGAIGPSGPAGKDGESGRPGRPGERGLPGPPGIKGPAGIPGFPGMKGHRGFDGRNGEKGETGAPGLKGENGLPGENGAPGPMGPRGAPGERGRPGLPGAAGARGNDGARGSDGQPGPPGPPGTAGFPGSPGAKGEVGPAGSPGSNGAPGQRGEPGPQGHAGAQGPPGPPGINGSPGGKGEMGPAGIPGAPGLMGARGPPGPAGANGAPGLRGGAGEPGKNGAKGEPGPRGERGEAGIPGVPGAKGEDGKDGSPGEPGANGLPGAAGERGAPGFRGPAGPNGIPGEKGPAGERGAPGPAGPRGAAGEPGRDGVPGGPGMRGMPGSPGGPGSDGKPGPPGSQGESGRPGPPGPSGPRGQPGVMGFPGPKGNDGAPGKNGERGGPGGPGPQGPPGKNGETGPQGPPGPTGPGGDKGDTGPPGPQGLQGLPGTGGPPGENGKPGEPGPKGDAGAPGAPGGKGDAGAPGERGPPGLAGAPGLRGGAGPPGPEGGKGAAGPPGPPGAAGTPGLQGMPGERGGLGSPGPKGDKGEPGGPGADGVPGKDGPRGPTGPIGPPGPAGQPGDKGEGGAPGLPGIAGPRGSPGERGETGPPGPAGFPGAPGQNGEPGGKGERGAPGEKGEGGPPGVAGPPGGSGPAGPPGPQGVKGERGSPGGPGAAGFPGARGLPGPPGSNGNPGPPGPSGSPGKDGPPGPAGNTGAPGSPGVSGPKGDAGQPGEKGSPGAQGPPGAPGPLGIAGITGARGLAGPPGMPGPRGSPGPQGVKGESGKPGANGLSGERGPPGPQGLPGLAGTAGEPGRDGNPGSDGLPGRDGSPGGKGDRGENGSPGAPGAPGHPGPPGPVGPAGKSGDRGESGPAGPAGAPGPAGSRGAPGPQGPRGDKGETGERGAAGIKGHRGFPGNPGAPGSPGPAGQQGAIGSPGPAGPRGPVGPSGPPGKDGTSGHPGPIGPPGPRGNRGERGSEGSPGHPGQPGPPGPPGAPGPCCGGVGAAAIAGIGGEKAGGFAPYYG
For B1, the “Abs at 590 nm (relative oxygen consumption), Controls” value is given as 1.45.
